Measured values reported in patent US20260001893A1, “SMALL MOLECULE MODULATORS OF STAT6” (Gilead Sciences, Inc., priority 2024, published 2026).

Key:
[1] = target: T1, Human STAT6 (truncated, aa122-658, with N-terminal His-tag) (Homo sapiens, UniProt P42226); assay: Surface plasmon resonance (SPR) assay, binding to human STAT6; conditions: Biacore 8K, 25° C, immobilized human STAT6 on CM5 chip, multi-cycle kinetics; geometric mean
T1 construct: Human STAT6 (truncated, aa122-658, with N-terminal His-tag, expressed in insect cells); His-tag (N); made in house; host or cells: insect cells
T1 sequence (P42226 122-658): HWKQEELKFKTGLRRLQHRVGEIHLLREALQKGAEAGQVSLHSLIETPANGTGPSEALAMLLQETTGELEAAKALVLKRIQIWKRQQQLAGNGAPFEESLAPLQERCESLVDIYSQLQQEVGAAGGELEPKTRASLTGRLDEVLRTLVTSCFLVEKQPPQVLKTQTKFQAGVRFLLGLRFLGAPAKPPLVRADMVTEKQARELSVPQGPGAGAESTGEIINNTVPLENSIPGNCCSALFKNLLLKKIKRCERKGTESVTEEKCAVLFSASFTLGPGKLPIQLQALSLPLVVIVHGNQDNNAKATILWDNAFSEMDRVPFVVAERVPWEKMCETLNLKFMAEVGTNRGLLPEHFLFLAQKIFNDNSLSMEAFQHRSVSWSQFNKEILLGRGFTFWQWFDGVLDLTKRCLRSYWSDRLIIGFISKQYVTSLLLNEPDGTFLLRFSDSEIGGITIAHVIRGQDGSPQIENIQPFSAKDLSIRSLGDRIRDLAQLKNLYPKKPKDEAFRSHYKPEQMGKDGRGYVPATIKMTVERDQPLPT
Method: Surface Plasmon Resonance Assay
Biacore instruments from the 8K-series (Cytiva) were used, and measurements were performed at 25° C. Human STAT6 (truncated, aa122-658, with N-terminal His-tag, expressed in insect cells) was immobilized in the active flow cells on a CM5 chip using amine-coupling (default settings) at 10 μg/ml in 10 mM acetate buffer pH 5.5, at a contact time of 120-420 sec. and a flow rate of 10 μl/min. Reference flow cells were deactivated using blank immobilization. PBS-P+(Cytiva) supplemented with 2% DMSO was used as running buffer, and solvent correction was applied. Compounds were tested by multi-cycle kinetics injections using a contact time of 60 sec., dissociation time of up to 300 sec., and a flow rate of 30 μl/min.
Solvent-corrected, reference-subtracted and blank-corrected data was processed and binding isotherms were fitted according to a single report point from each sensorgram (Standard: Late binding (5 sec. before injection end); alternative: Earlier report point according to binding profile). Data fitting was done both with unfixed Rmax and with Rmax fixed to the theoretical value* assuming 1:1 binding to allow processing of data from both weak and strong binders as well as to evaluate binding stoichiometry.
Positive controls were run at the beginning, during, and at the end of the screen to evaluate surface activity.
*Equation for calculation of the theoretical Rmax(Theoretical Rmax=(MW Analyte/MW Ligand)×immobilization level).

[2] = tested on: Eotaxin-3 (CCL26) release in human whole blood stimulated with IL-4; assay: Human whole blood eotaxin-3 assay (IL-4 stimulated eotaxin-3 release); assay type: cell-based; conditions: Homo sapiens, 48 h, human whole blood stimulated with recombinant human IL-4, 48 h; inhibition of eotaxin-3 release; given for test compounds with >80% Emax; geometric mean
Procedure, shortened: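 Eotaxin-3 (CCL26) release was quantified by MSD immunoassay in supernatants of human heparinised whole blood after 48 h at 37° C with IL-4 ([…] final). Compounds, in 4-fold dilutions at 0.5% DMSO, were added 2 h before stimulation.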

Row | Kd [1] | EC50 [2] | Compound
1 | 572 nM |  | CNc1ccn(-c2ccnc3c2cc(CN2CCC(c4ncc(C(=O)N(C)C)cc4C)CC2)n3C)c(=O)c1 [Example 1m15, N,N,5-Trimethyl-6-(1-((1-methyl-4-(4-(methylamino)-2-oxopyridin-1 (2H)-yl)-1H-pyrrolo[2,3-b]pyridin-2-yl)methyl)piperidin-4-yl)nicotinamide]
2 | 112 nM |  | CN(C)C(=O)c1ccc(C2CCN(Cc3cc4c(-n5ccc(NC6CC6)cc5=O)ccnc4n3C)CC2)cc1 [Example 1d15, 4-[1-[[4-[4-(cyclo-Propylamino)-2-oxo-1-pyridyl]-1-methyl-pyrrolo[2,3-b]pyridin-2-yl]methyl]-4-piperidyl]-N,N-dimethyl-benzamide]
3 | 640 nM |  | [2H]C([2H])([2H])N(C(=O)c1ccc(N2CCN(Cc3cc4c(-n5ccc(NC)cc5=O)ccnc4n3C)CC2)nc1)C([2H])([2H])[2H] [Example 1m8, N,N-Bis(methyl-d3)-6-(4-((1-methyl-4-(4-(methylamino)-2-oxopyridin-1 (2H)-yl)-1H-pyrrolo[2,3-b]pyridin-2-yl)methyl)piperazin-1-yl)nicotinamide]
4 | 49 nM |  | CN(C)C(=O)c1ccc(C2CCN(Cc3cc4c(-n5ccc(NCc6ccc(Cl)cc6)cc5=O)ccnc4n3C)CC2)cc1 [Example 1d13, 4-[1-[[4-[4-[(4-Chlorophenyl)methylamino]-2-oxo-1-pyridyl]-1-methyl-pyrrolo[2,3-b]pyridin-2-yl]methyl]-4-piperidyl]-N,N-dimethyl-benzamide]
5 | 22.8 nM |  | CCN(CC)C(=O)c1ccc(C2CCN(Cc3cc4c(-n5ccc(NC)cc5=O)ccnc4n3C)CC2)cc1 [Example 1d10, N,N-Diethyl-4-[1-[[1-methyl-4-[4-(methylamino)-2-oxo-1-pyridyl]pyrrolo[2,3-b]pyridin-2-yl]methyl]-4-piperidyl]benzamide]
6 | 167 nM |  | CNc1ccn(-c2ccnc3c2cc(CN2CC=C(c4ccc(C(=O)N(C)C)cn4)CC2)n3C)c(=O)c1 [Example 1m13, N,N-Dimethyl-1′-((1-methyl-4-(4-(methylamino)-2-oxopyridin-1 (2H)-yl)-1H-pyrrolo[2,3-b]pyridin-2-yl)methyl)-1′, 2′, 3′, 6′-tetrahydro-[2,4′-bipyridine]-5-carboxamide]
7 | 156 nM |  | CNc1ccn(-c2ccnc3c2cc(CN2CCC(F)(c4ccc(C(=O)N(C)C)cc4)CC2)n3C)c(=O)c1 [Example 1f5, 4-[4-Fluoro-1-[[1-methyl-4-[4-(methylamino)-2-oxo-1-pyridyl]pyrrolo-[2,3-b]pyridin-2-yl]methyl]-4-piperidyl]-N,N-dimethyl-benzamide]
8 | 175 nM |  | CN(C)C(=O)c1ccc(C2CCN(Cc3cc4c(-n5ccc(NC(=O)OC(C)(C)C)cc5=O)ccnc4n3C)CC2)cc1 [Example 1d2, tert-Butyl N-[1-[2-[[4-[4-(dimethylcarbamoyl)phenyl]-1-piperidyl]methyl]-1-methyl-pyrrolo[2,3-b]pyridin-4-yl]-2-oxo-4-pyridyl]carbamate]
9 | 244 nM |  | CNc1ccn(-c2ccnc3c2cc(CN2CCN(c4ccc(C(=O)N(C)C)cc4)CC2)n3C)c(=O)c1 [Example 1m3, N,N-Dimethyl-4-(4-((1-methyl-4-(4-(methylamino)-2-oxopyridin-1 (2H)-yl)-1H-pyrrolo[2,3-b]pyridin-2-yl)methyl)piperazin-1-yl)benzamide]
10 | 338 nM |  | CNc1ccn(-c2ccnc3c2cc([C@H](C)N2CCC(c4ccc(C(=O)N(C)C)cc4)CC2)n3C)c(=O)c1 (single isomer, unassigned) [Example 1m72]
11 | 124 nM |  | CN(C)C(=O)c1ccc(C2CCN(Cc3cc4c(-n5ccc(NCc6ccc(F)c(F)c6)cc5=O)ccnc4n3C)CC2)cc1 [Example 1d14, 4-[1-[[4-[4-[(3,4-Difluorophenyl)methylamino]-2-oxo-1-pyridyl]-1-methyl-pyrrolo[2,3-b]pyridin-2-yl]methyl]-4-piperidyl]-N,N-dimethyl-benzamide]
12 | 113 nM |  | CNc1ccn(-c2ccnc3c2cc(CN2CCC(c4ccc(C(=O)N(C)C)cn4)CC2)n3C)c(=O)c1 [Example 1m11, N,N-Dimethyl-6-(1-((1-methyl-4-(4-(methylamino)-2-oxopyridin-1 (2H)-yl)-1H-pyrrolo[2,3-b]pyridin-2-yl)methyl)piperidin-4-yl)nicotinamide]
13 | 76.4 nM |  | CN(C)C(=O)c1ccc(C2CCN(Cc3cc4c(-n5ccc(N)c(C6CC6)c5=O)ccnc4n3C)CC2)cc1 [Example 1d28, 4-[1-[[4-(4-Amino-3-cyclo-propyl-2-oxo-1-pyridyl)-1-methyl-pyrrolo[2,3-b]pyridin-2-yl]methyl]-4-piperidyl]-N,N-dimethyl-benzamide]
14 | 31 nM |  | CN(C)C(=O)c1ccc(C2CCN(Cc3cc4c(-n5ccc(NCc6ccccc6)cc5=O)ccnc4n3C)CC2)cc1 [Example 1d12, 4-[1-[[4-[4-(Benzylamino)-2-oxo-1-pyridyl]-1-methyl-pyrrolo[2,3-b]pyridin-2-yl]methyl]-4-piperidyl]-N,N-dimethyl-benzamide]
15 | 224 nM |  | CN(C)C(=O)c1ccc(C2CCN(Cc3cc4c(-n5ncc(N)cc5=O)ccnc4n3C)CC2)cc1 [Example 1ab4, 4-(1-((4-(4-Amino-6-oxopyridazin-1 (6H)-yl)-1-methyl-1H-pyrrolo[2,3-b]pyridin-2-yl)methyl)piperidin-4-yl)-N,N-dimethylbenzamide]
16 |  | 4.8 nM | CNc1ccn(-c2ccnc3c2cc(CN2CC=C(c4c(C)cc(C(=O)N(C)C)cc4F)CC2)n3C)c(=O)n1 [Example 1m88, 3-fluoro-N,N,5-trimethyl-4-(1-((1-methyl-4-(4-(methylamino)-2-oxopyrimidin-1 (2H)-yl)-1H-pyrrolo[2,3-b]pyridin-2-yl)methyl)-1,2,3,6-tetrahydropyridin-4-yl)benzamide]
17 |  | 10.8 nM | CNc1ccn(-c2ccnc3c2cc([C@H](C)N2CCC(c4c(C)cc(C(=O)N(C)C)cc4F)CC2)n3C)c(=O)c1 [Example 1m109, (S)-3-fluoro-N,N,5-trimethyl-4-(1-(1-(1-methyl-4-(4-(methylamino)-2-oxopyridin-1 (2H)-yl)-1H-pyrrolo[2,3-b]pyridin-2-yl)ethyl)piperidin-4-yl)benzamide]
18 |  | 4.09 nM | CNc1nc(=O)n(-c2ccnc3c2cc([C@H](C)N2CC=C(c4c(C)cc(C(=O)N(C)C)cc4F)CC2)n3C)cc1F [Example 1m129, (S)-3-fluoro-4-(1-(1-(4-(5-fluoro-4-(methylamino)-2-oxopyrimidin-1 (2H)-yl)-1-methyl-1H-pyrrolo[2,3-b]pyridin-2-yl)ethyl)-1,2,3,6-tetrahydropyridin-4-yl)-N,N,5-trimethylbenzamide]
19 |  | 589 nM | CNc1cc(=O)n(-c2ccnc3c2cc([C@H](C)N2CC=C(c4c(C)cc(C(=O)N(C)C)cc4F)CC2)n3C)cc1OC [Example 1m137, (S)-3-fluoro-4-(1-(1-(4-(5-methoxy-4-(methylamino)-2-oxopyridin-1 (2H)-yl)-1-methyl-1H-pyrrolo[2,3-b]pyridin-2-yl)ethyl)-1,2,3,6-tetrahydropyridin-4-yl)-N,N,5-trimethylbenzamide]
20 |  | 20.4 nM | [2H]C([2H])([2H])N(C(=O)c1cc(F)c(C2=CCN(Cc3cc4c(-n5ccc6c(c5=O)CCN6)ccnc4n3C)CC2)c(F)c1)C([2H])([2H])[2H] [Example 1m115, 3,5-difluoro-N,N-bis(methyl-d3)-4-(1-((1-methyl-4-(4-oxo-1,2,3,4-tetrahydro-5H-pyrrolo[3,2-c]pyridin-5-yl)-1H-pyrrolo[2,3-b]pyridin-2-yl)methyl)-1,2,3,6-tetrahydropyridin-4-yl)benzamide]
21 |  | 307 nM | CN(C)C(=O)c1ccc(C2CCN(Cc3cc4c(-n5ccc(N)c(C(=O)CCCO)c5=O)ccnc4n3C)CC2)cc1 [Example 1d44, 4-[1-[[4-[4-Amino-3-(4-hydroxybutanoyl)-2-oxo-1-pyridyl]-1-methyl-pyrrolo[2,3-b]pyridin-2-yl]methyl]-4-piperidyl]-N,N-dimethyl-benzamide]
